The source of these data is US9051240B2, “Substituted 2-[2-(phenyl) ethylamino] alkaneamide derivatives and their use as sodium and/or calcium channel modulators” (Newron Pharmaceuticals S.P.A., priority 2007, dated 2015).

Where two headings read alike, the source gives them in different places. A value given as a limit tells only on which side of the number the result lay.

Assay [1] concerns mice. The assay can be described thus: Maximal electroshock test (MES) in mice. It is filed as in vivo. As to conditions: for ED50: Mus musculus. From the text:
The maximal electroshock test (MES) is used commonly in the screening of anti-epileptic drugs in rodent models.
Animals and Apparatus: Male CD1 mice weighing 25 g were used. The procedure described by White et al. (White H. S., Woodhead J. H., Franklin M. R., Swinyard E. A., and Wolf H. H. Antiepileptic Drugs (1995) 4th ed: 99-110, Raven Press, Ltd., New York) was followed. An Ugo Basile electroconvulsive generator (Model ECT UNIT 7801) was used to deliver an electrical stimulus sufficient to produce a hindlimb tonic extensor response in at least 97% of control animals. The stimulus was delivered intra-aurally through clip electrodes in mice (0.7 s of a 40 mA shock, with a pulse train of 80 Hz having a pulse duration of 0.4 ms). The acute effect of compounds administered intraperitoneally (i.p.), subcutaneously (s.c.), intravenously (i.v.) or orally (p.o.) 5-120 minutes before MES induction were examined and compared with a vehicle control group. Ten mice were studied per group. Complete suppression of the hindlimb tonic extensor component of seizures was taken as evidence of anticonvulsant activity.
The compounds of the invention were administered p.o. or i.v., at the doses of 0.1-100 mg/kg.
For orientation: The maximal electroshock test induces tonic seizures with an electrical stimulus.

A further assay concerns TTXs sodium channels. Nature of the assay: TTXs-sodium channel influx assay (fluorescence, ND7/23 cell line). It is filed as cell-based, rat. The conditions noted are these: ND7/23 cells, veratridine 100 μM; read-out: Na+ influx IC50. Here is the method:
ND7/23 rat dorsal root ganglion-derived cell line endogenously expresses a mixed population of TTXs sodium channels. These cells lack of TTXr sodium channels as shown by the absence of their respective transcripts.
ND7/23 cells were grown in DMEM supplemented with 10% FBS and 1 mM sodium piruvate. The cells were seeded at 50,000 cells/well on 96 poly-L-lysine-coated plates and further incubated for 18-24 h before use.
The Membrane Potential Kit Assay (Molecular Devices), based on a negatively charged fluorescent dye able to monitor changes in membrane potential caused by the sodium influx due to the channel opening, was used for the assay.
Cells were incubated with the dye loading for 30 minutes at 25° C. Then, 100 nM of the toxin Anemonia sulcata (used as enhancer of the channel opener response) alone or in the presence of TTX (as reference standard) or test compound were added for further 15 minutes.
The fluorescence (excitation:530 nm, emission: 565 nm wavelength) was measured before and after (40-45 s) the automated injection of the sodium channel opener veratridine (100 μM) using a Victor plate reader (Perkin Elmer).
The inhibition curves were calculated from 5 concentrations, each in triplicate, and the IC50 determined using linear regression analysis.

Assay [2] addresses Na+ currents in rat cortical neurons. Nature of the assay: Patch clamp evaluation of Na+ currents blockade in rat cortical neurons. It is filed as cell-based. The conditions noted are these: for Ki: calculated from Kr and Kdep, read-out: Ki (apparent affinity for the inactivated state). Here is the method: Cortical neurons were prepared from embryonic Wistar rats (E17-E19). A female rat at date 17-19 of pregnancy was anesthetized and sacrificed. The fetuses (n=4-5) were dissected and placed in ice-cold Hank's solution (Hank's solution (Life tech.14170-088)+glucose 30%+Pen-Strep 100× (Life Tech. 15140-122) 100U-100 μg/ml and Hepes-NaOH 5 mM). The uterus and placenta were removed, the fetuses were decapitated and the heads were placed in ice-cold Hank's solution. Cells were counted and diluted in Neurobasal medium to a concentration of 400000 cells per poly-D-lysine 5 μg/ml treated Petri dish. Cortical neurons were used from day 6th till day 11th after plating, and once a week Neurobasal medium was changed. Experiments on cortical neurons were carried out using standard whole cell patch clamp methods (Hamill et al., Pfugers Arch., 1981 August, 391(12), 85-100). Membrane currents were recorded and filtered at 5 kHz with an Axon Axopatch 200B amplifier and data digitized with an Axon Digidata 1322A (Axon Instruments, CA, USA). Protocol playing and data acquisition were controlled online with Axon pClamp8 software. Measuring and reference electrodes were AgCl-Ag electrodes. A Sutter Instrument P-87 Puller (CA, USA) was used for pulling patch clamp pipettes with a resistance of 2-3 MΩ from Harward borosilicate glass tubes. Cells were continuously superfused with extracellular solutions, using a solution changer Biologic RSC-200. To test the effect of compounds on sodium currents in cortical neurons, cells were clamped at -90 mV, then a two step protocol was used to determine the voltage dependence of the block. […] Tonic block of resting and depolarized currents at a given drug concentration, was calculated as the difference between the peak Na^+ current in the control external bath solution and peak currents with the test substance divided by control peak. Drug concentration-inhibition curves were obtained by plotting tonic blocks in the resting and depolarized condition, versus drug concentrations. Dose-response curves were fitted to the tonic block data, according to the logistic equation: […] Control bath solution contained (mM): […] Internal pipette solution consisted of (mM): […] Compounds were dissolved as stock solutions (20 mM) in DMSO. They were diluted to the final concentrations in the external solution.

Assay [3] deals with mice. The assay can be described thus: Formalin test. It is filed as in vivo. As to conditions: Mus musculus, po. As to the method:
According to a modified protocol from Rosland et al. (Rosland J. H., Tjolsen A., Maehle B., Hole K. Pain (1990) 42: 235-242), mice were injected subcutaneously (s.c.) with 20 μl of 2.7% solution of formalin into the plantar surface of left hindpaw and placed immediately into clear PVC observation chambers (23×12×13 cm). Pain behaviour was quantified by counting the cumulative licking time (s) of the injected paw. Measurements were taken during the early phase (0-5 min) and late phase (20-40 min) after formalin injection (Tjolsen A., Berge O. G., Hunskaar S., Rosland J. H., Hole K. Pain (1992) 51: 5-17).
The test compound was administered p.o. or s.c. 5-45 minutes before formalin injection in a volume of 10 ml/kg body weight to groups of 10 mice per dose. Control group was treated with vehicle.

Where [4] appears, read: preconditioning potential -110 mV, read-out: IC50 resting (Kr).
Setting [5] is: preconditioning potential ~-50 mV, read-out: IC50 depolarized.

As for `CCCCOc1cccc(CCNCC(=O)N(C)C)c1.Cl` [2-[2-(3-Butoxyphenyl)-ethylamino]-N,N-dimethylacetamide hydrochloride], the ED50 in the assay with mice [1] (iv, mice, MES, i.v., read-out: MES ED50 mg/kg i.v.) amounted to 0.2 mg/kg; with mice [1] (po, mice, MES, p.o., read-out: ED50 (mg/kg p.o.)), 4.3 mg/kg; with mice [3], 14.9 mg/kg. Moreover, the “% protection 10 mg/kg p.o.” value in the assay with mice [1] (mice, MES, 10 mg/kg p.o.) stood at 100%. The IC50 (commonly the concentration that inhibits the measured activity by half) in the assay on TTXs sodium channels was found to be 1.5 µM; in assay [2] (setting [4]), 25 µM; in assay [2] (setting [5]) it was 0.8 µM. The Ki in assay [2] was 0.4 µM.

Turning to `C[C@H](NCc1ccc(OCc2ccccc2F)cc1)C(N)=O` [ralfinamide, (S)-(+)-2-[4-(2-fluorobenzyloxy)-benzylamino]-propanamide, reference compound], the ED50 in the assay with mice [1] (iv, read-out: MES ED50 mg/kg i.v.) was determined as 2.7 mg/kg; with mice [3] it was 29.3 mg/kg. The IC50 in the assay on TTXs sodium channels is 9.5 µM; in assay [2] (setting [4]), over 100 µM; in assay [2] (setting [5]) it was 9 µM; in assay [2] (resting condition, figure in parentheses after >100, read-out: IC50 resting (Kr), value in parentheses), 213 µM. Besides, the Ki in assay [2] was 4.7 µM.
